One test concerns PgUGT71A1. The test is described as follows: In-vitro glycosyltransferase assay of recombinant PgUGT71A1 with ginsenoside substrates and UDP-glucose. Type of test: biochemical, Panax ginseng. The conditions noted are these: for conversion by PgUGT71A1 (product formed), HPLC / conversion by PgUGT71A1 (product formed), TLC: ginsenoside 5 mM, UDP-glucose 50 mM, 35° C., 12 hours; for conversion by PgUGT71A1 (product formed), HPLC: FIG. 2 bottom; for conversion by PgUGT71A1 (product formed), TLC: FIG. 2 top; for reaction with PgUGT71A1 confirmed by thin-layer chromatography: screen of 9 ginsenosides incubated with recombinant PgUGT71A1 in the presence of UDP-glucose; for conversion by PgUGT71A1 (product formed), TLC / reaction with PgUGT71A1 confirmed by thin-layer chromatography: TLC. Here is the method: A glycosyltransferase assay was conducted in a reaction buffer (10 mM PBS buffer, pH 7) containing the purified PgUGT71A1 (30 μg), a ginsenoside compound (5 mM) and UDP-glucose (50 mM). For this assay, 4 different types of ginsenosides, i.e., protopanaxadiol (PPD), protopanaxatriol (PPT), Rh2 and Rg3, were caused to react the enzyme of the present disclosure.
The reaction mixture was incubated at 35° C. for 12 hours and the resulting products were analyzed by thin-layer chromatography (TLC) or high-performance liquid chromatography (HPLC).
The TLC analysis was performed using a mobile phase (acetone:methanol:DDW=65:35:10 vol/vol) and a 60F254 silica gel plate (Merck, Germany). The resolved product on the TLC plate was detected by spraying 10% (vol/vol) sulfuric acid (H2SO4) and heating at 110° C. for 5 minutes.
The HPLC analysis was performed using an ODS(2) C18 column (Phenomenex, USA). The condition of gradient application of water and acetonitrile was as follows: flow rate=1 mL/min, 0 minute, 68% water and 32% acetonitrile; 8 minutes, 35% water and 65% acetonitrile; 12 minutes, 0% water and 100% acetonitrile; 20 minutes, 0% water and 100% acetonitrile; 20.1 minutes, 68% water and 32% acetonitrile; and 28 minutes, 68% water and 32% acetonitrile.
The ginsenosides were detected by monitoring at a wavelength of 203 nm using a UV detector (Agilent, USA).
First, the recombinant PgUGT of Example 1, PgUGT71A1, was incubated with 9 different types of ginsenosides (PPD, Rh2, Rg3, C—K, F2, Rd, PPT, F1, and Rh1) in the presence of UDP-glucose.
In order to confirm the result again, 4 different types of ginsenosides (PPD, PPT, Rh2, and Rg3) were incubated with PgUGT71A1, and the products converted by the recombinant PgUGT71A1 were analyzed by TLC. The result is shown at the top of FIG. 2. The result was confirmed by comparing the locations of the migrating spots with those of PPD, PPT, Rh2, Rg3, C—K, F2, Rd, and F1 used as standard samples.

The test system of the next test is PgUGT71A1 expression. Kind of test: Expression of PgUGT71A1 in ginseng leaves and roots after methyl jasmonate treatment (real-time PCR, NGS). Type of test: in vivo, Panax ginseng. Conditions: 200 μM MeJA sprayed onto leaves of 15-month-old ginseng daily for 5 days, sampled 6th day, FIGS. 3 and 4. Here is the method: Total RNA was isolated from the leaf or root of 15-month-old ginseng using the Spectrum Plant Total RNA kit (Sigma-Aldrich). 200 μM methyl jasmonate (MeJA) was sprayed onto the leaves of ginseng every day for a total of 5 days and samples were collected on the 6th day. 1 μg of the total RNA was used for cDNA synthesis.
The expression level of different genes was examined by quantitative RT-PCR using the primer sets listed in Table 1, and the result was normalized to the expression level of tubulin.
RNA was extracted from the leaf and root of ginseng which had been treated and not treated with MeJA, and a cDNA library was constructed from 1 μg of the total RNA using the TruSeq RNA library kit. Following polyA-selected RNA extraction, RNA fragmentation and random hexamer-primed reverse transcription, 100 nt paired-end sequencing was conducted using Illumina HiSeq2000.
The resulting sequences were subjected to de novo transcriptome assembly using the Trinity (2011-11-26 version) program. The produced contigs (transcripts) were analyzed using Blast (version 2.2.25+). The GO database (released on 20-04-2012) and the NR database of NCBI (download date: 2012/05/07) were used. […] The expression level was expressed as fragments per kilobase of exon per million fragments mapped (FPKM) with a program released by the Trinity group using the RSEM algorithm. […]
For orientation: Real-time PCR tracks product formation cycle by cycle.

On to `CC(C)=CCCC(C)(O)[C@H]1CC[C@]2(C)[C@@H]1[C@H](O)C[C@@H]1[C@@]3(C)CC[C@H](O)C(C)(C)[C@@H]3CC[C@]12C` (stereo in doubt) [PPD, protopanaxadiol], for which, in the test with PgUGT71A1, the “conversion by PgUGT71A1 (product formed), HPLC” value (shortened to “conversion by PgUGT71A1 … HPLC”) is recorded as “converted PPD to C—K”; the “conversion by PgUGT71A1 (product formed), TLC” value (shortened to “conversion by PgUGT71A1 … TLC”) is on record as “converted PPD to compound K (C—K)”; the “reaction with PgUGT71A1 confirmed by thin-layer chromatography” value (from here on “reaction with PgUGT71A1 confirmed”) is on record as “reaction occurred”.
On to `CC/C=C\CC1C(=O)CCC1CC(=O)OC` (stereo not shown) [MeJA, methyl jasmonate], for which the “expression of PgUGT71A1 after MeJA treatment” value in the test with PgUGT71A1 expression is recorded as “significantly enhanced”.
Take `CC(C)=CCC[C@](C)(O)[C@H]1CC[C@]2(C)[C@@H]1[C@H](O)C[C@@H]1[C@@]3(C)CC[C@H](O)C(C)(C)[C@@H]3[C@@H](O)C[C@]12C` [PPT, protopanaxatriol]: in the test with PgUGT71A1, the “conversion by PgUGT71A1 … HPLC” value was “PPT to F1”; the “conversion by PgUGT71A1 … TLC” value is on record as “PPT to F1”; the “reaction with PgUGT71A1 confirmed” value is given as “reaction occurred”.
For `CC(C)=CCC[C@](C)(O)[C@H]1CC[C@]2(C)[C@@H]1[C@H](O)C[C@@H]1[C@@]3(C)CC[C@H](O[C@@H]4O[C@H](CO)[C@@H](O)[C@H](O)[C@H]4O[C@@H]4O[C@H](CO)[C@@H](O)[C@H](O)[C@H]4O)C(C)(C)[C@@H]3CC[C@]12C` [Rg3], in the test on PgUGT71A1, the “conversion by PgUGT71A1 … HPLC” value is “Rg3 to Rd”; the “conversion by PgUGT71A1 … TLC” value was “Rg3 to Rd”; the “reaction with PgUGT71A1 confirmed” value is given as “reaction occurred”.
Consider `CC(C)=CCC[C@](C)(O)[C@H]1CC[C@]2(C)[C@@H]1[C@H](O)C[C@@H]1[C@@]3(C)CC[C@H](O[C@@H]4O[C@H](CO)[C@@H](O)[C@H](O)[C@H]4O)C(C)(C)[C@@H]3CC[C@]12C` [Rh2], for which, in the test on PgUGT71A1, the “conversion by PgUGT71A1 … HPLC” value is on record as “Rh2 to F2”; the “conversion by PgUGT71A1 … TLC” value is “Rh2 to F2”; the “reaction with PgUGT71A1 confirmed” value is “reaction occurred”.

The values above are taken from patent US10174355B2, “Method for glycosylation of ginsenoside using a glycosyltransferase derived from panax ginseng” (KOREA ADVANCED INSTITUTE OF SCIENCE AND TECHNOLOGY, priority 2014, dated 2019).
